Like-named read-outs stand apart in the source and are kept apart here.
Tests used:
HCT116 MTAP null cells = assay: HCT116 MTAP null cell line proliferation (CellTiter-Glo cell viability, 6 days); format: cell-based; settings: HCT116 MTAP null cells, 6 days of treatment, CellTiter-Glo cell viability, read-out: HCT-116 MTAP null IC50
Method: (§1) To assess selective anti-proliferative activity of compounds of the invention in cells that have loss expression of MTAP, an HCT-116 isogenic cell line pair was utilized where one cell line was engineered to genetically knockout both MTAP alleles. Cell viability was then assessed in both the parent HCT-116 cell line and the MTAP null cell line after 6 days of treatment with compounds of the present invention. Selective anti-proliferative activity in the MTAP null cell line indicates MTA-cooperative inhibition of PRMT5 and ability to inhibit growth of cancer cells that have loss of MTAP.
(§2) HCT116 MTAP null and WT cells were seeded in 96-well tissue culture plates in RPMI 1640 media+10% fetal bovine serum. Plates were incubated overnight at 37° C. and 5% CO2. Cells were then treated with an 8- or 9-point serial dilution of compound, using a top concentration of 1, or 10 μM, 1:3 serial dilution steps and, a DMSO-only control. Cells were incubated in the presence of drug for 6 days. Effects on cell viability were measured with the CellTiter-Glo® Luminescent Cell Viability Assay (Promega) per manufacturer's recommendation. Assay plates were read on an EnVision™ Multilabel Reader using the Ultra-Sensitive luminescence module. IC50 values were calculated with GraphPad Prism v 5.01 using symmetrical sigmoidal dose-response least squares fit with Hill slope fixed to −1 and top constrain to 100% or GeneData Screener using a 4-parameter logistic model to fit dose response curves.
(§3) Alternatively, compounds could be assayed with a 384 well plate format:
(§4) Compounds were pre-spotted into 384 well plates with a 22-point serial dilution of compound, using a top concentration of 10 or 50 μM, 1:2 serial dilution steps and, a DMSO-only control. HCT116 MTAP null and WT cells were then seeded as above and after 6 days effects on cell viability were measured with the CellTiter-Glo® Luminescent Cell Viability Assay (Promega). Assay plates were read as above and IC50 values were calculated with GeneData Screener using a 4-parameter logistic model to fit dose response curves. The reported IC50 represents the value where the curve transits 50% of control.

HCT116 WT cells = assay: HCT116 WT cell line proliferation (CellTiter-Glo cell viability, 6 days); format: cell-based; settings: HCT116 WT (parent) cells, 6 days of treatment, CellTiter-Glo cell viability, read-out: HCT-116 WT IC50
Method: as §1, §2, §3, §4

| SMILES | IC50 (HCT116 MTAP null cells; HCT116-MTAP null, 144 h) [nM] | IC50 (HCT116 WT cells; Homo sapiens, HCT-116, 144 h) [nM] | IC50 (HCT116 MTAP null cells) [nM] | IC50 (HCT116 WT cells) [nM] |
| --- | --- | --- | --- | --- |
| C[C@H]1COC[C@@H](c2ccc(C(F)(F)F)cn2)N1C(=O)c1cc2c3c(c(N)nc2cc1F)COC3 (mixture of isomers) [Example 304, (4-amino-7-fluoro-1,3-dihydrofuro[3,4-c]quinolin-8-yl)((3R,5S)-3-methyl-5-(5-(trifluoromethyl)-2-pyridinyl)-4-morpholinyl)methanone and (4-amino-7-fluoro-1,3-dihydrofuro[3,4-c]quinolin-8-yl)((3S,5R)-3-methyl-5-(5-(trifluoromethyl)-2-pyridinyl)-4-morpholinyl)methanone] | 710 | 572 | – | – |
| CC1OCc2c1c(N)nc1cnc(C(=O)N3C(C)COCC3c3ccc(OC(F)F)nn3)cc21 (mixture of isomers) [Example 316, ((3R)-4-amino-3-methyl-1,3-dihydrofuro[3,4-c][1,7]naphthyridin-8-yl)((3R,5S)-3-(6-(difluoromethoxy)-3-pyridazinyl)-5-methyl-4-morpholinyl)methanone and ((3R)-4-amino-3-methyl-1,3-dihydrofuro[3,4-c][1,7]naphthyridin-8-yl)((3S,5R)-3-(6-(difluoromethoxy)-3-pyridazinyl)-5-methyl-4-morpholinyl)methanone] | – | – | 35 | 1130 |
| CC1OCc2c1c(N)nc1ccc(C(=O)N3C(C)COCC3c3ccc(OC(F)F)nn3)cc21 (mixture of isomers) [Example 317, ((3R)-4-amino-3-methyl-1,3-dihydrofuro[3,4-c]quinolin-8-yl)((3R,5S)-3-(6-(difluoromethoxy)-3-pyridazinyl)-5-methyl-4-morpholinyl)methanone and ((3R)-4-amino-3-methyl-1,3-dihydrofuro[3,4-c]quinolin-8-yl)((3S,5R)-3-(6-(difluoromethoxy)-3-pyridazinyl)-5-methyl-4-morpholinyl)methanone] | – | – | 53 | 2370 |
| CC(C)Oc1ccc([C@H]2COCCN2C(=O)c2cc3c4c(c(N)nc3cn2)COC4)cn1 (mixture of isomers) [Example 323, (4-amino-1,3-dihydrofuro[3,4-c][1,7]naphthyridin-8-yl)((3R)-3-(6-(2-propanyloxy)-3-pyridinyl)-4-morpholinyl)methanone and (4-amino-1,3-dihydrofuro[3,4-c][1,7]naphthyridin-8-yl)((3S)-3-(6-(2-propanyloxy)-3-pyridinyl)-4-morpholinyl)methanone] | 397 | – | – | – |
| CCOc1ccc(C2COCCN2C(=O)c2cc3c4c(c(N)nc3cn2)[C@@H](C)OC4)nn1 (mixture of isomers) [Example 325, ((3R)-4-amino-3-methyl-1,3-dihydrofuro[3,4-c][1,7]naphthyridin-8-yl)((3R)-3-(6-ethoxy-3-pyridazinyl)-4-morpholinyl)methanone and ((3R)-4-amino-3-methyl-1,3-dihydrofuro[3,4-c][1,7]naphthyridin-8-yl)((3S)-3-(6-ethoxy-3-pyridazinyl)-4-morpholinyl)methanone] | 771 | > 10000 | – | – |
| CC1OCc2c1c(N)nc1cnc(C(=O)N3C(C)COCC3c3ccc(OC(F)(F)F)cc3F)cc21 (mixture of isomers) [Example 330, ((3S)-4-amino-3-methyl-1,3-dihydrofuro[3,4-c][1,7]naphthyridin-8-yl)((3R,5S)-3-(2-fluoro-4-(trifluoromethoxy)phenyl)-5-methyl-4-morpholinyl)methanone and ((3S)-4-amino-3-methyl-1,3-dihydrofuro[3,4-c][1,7]naphthyridin-8-yl)((3S,5R)-3-(2-fluoro-4-(trifluoromethoxy)phenyl)-5-methyl-4-morpholinyl)methanone] | – | – | 403 | 20900 |
| CC1OCc2c1c(N)nc1ccc(C(=O)N3C(C)COCC3c3ccc(C(F)(F)F)cc3F)cc21 (mixture of isomers) [Example 331, ((3R)-4-amino-3-methyl-1,3-dihydrofuro[3,4-c]quinolin-8-yl)((3R,5S)-3-(2-fluoro-4-(trifluoromethyl)phenyl)-5-methyl-4-morpholinyl)methanone and ((3R)-4-amino-3-methyl-1,3-dihydrofuro[3,4-c]quinolin-8-yl)((3S,5R)-3-(2-fluoro-4-(trifluoromethyl)phenyl)-5-methyl-4-morpholinyl)methanone] | – | – | 35 | 897 |
| CC1OCc2c1c(N)nc1cnc(C(=O)N3C(C)COCC3c3ccc(C(F)(F)F)cc3F)cc21 (mixture of isomers) [Example 332, ((3S)-4-amino-3-methyl-1,3-dihydrofuro[3,4-c][1,7]naphthyridin-8-yl)((3R,5S)-3-(2-fluoro-4-(trifluoromethyl)phenyl)-5-methyl-4-morpholinyl)methanone and ((3S)-4-amino-3-methyl-1,3-dihydrofuro[3,4-c][1,7]naphthyridin-8-yl)((3S,5R)-3-(2-fluoro-4-(trifluoromethyl)phenyl)-5-methyl-4-morpholinyl)methanone] | – | – | 536 | 23300 |
| C[C@@H]1COC[C@H](c2cc(F)cc(F)c2)N1C(=O)c1cc2c3c(c(N)nc2cn1)[C@@H](C)OC3 (racemic) [Example 324, ((3R)-4-amino-3-methyl-1,3-dihydrofuro[3,4-c][1,7]naphthyridin-8-yl)((3R,5S)-3-(3,5-difluorophenyl)-5-methyl-4-morpholinyl)methanone and ((3R)-4-amino-3-methyl-1,3-dihydrofuro[3,4-c][1,7]naphthyridin-8-yl)((3S,5R)-3-(3,5-difluorophenyl)-5-methyl-4-morpholinyl)methanone] | 186 | – | – | – |
| Nc1nc2ccc(C(=O)N3CCOCC3c3ccccc3Cl)cc2c2c1COC2 (racemic) [Example 360, (4-amino-1,3-dihydrofuro[3,4-c]quinolin-8-yl)-[rac-(3S)-3-(2-chlorophenyl)morpholin-4-yl]methanone] | 1050 | – | – | – |
| Cc1ccc(C2COCCN2C(=O)c2ccc3nc(N)c4c(c3c2)COC4)cc1 (racemic) [Example 361, (4-amino-1,3-dihydrofuro[3,4-c]quinolin-8-yl)-[rac-(3S)-3-(p-tolyl)morpholin-4-yl]methanone] | 839 | – | – | – |
| Nc1nc2ccc(C(=O)N3CCOCC3c3cccc(Br)c3)cc2c2c1COC2 (racemic) [Example 366, (4-amino-1,3-dihydrofuro[3,4-c]quinolin-8-yl)-[rac-(3S)-3-(3-bromophenyl)morpholin-4-yl]methanone] | 363 | – | – | – |
| Nc1nc2ccc(C(=O)N3CCOCC3c3ccc(Br)cc3)cc2c2c1COC2 (racemic) [Example 367, (4-amino-1,3-dihydrofuro[3,4-c]quinolin-8-yl)-[rac-(3S)-3-(4-bromophenyl)morpholin-4-yl]methanone] | 368 | – | – | – |
| Nc1nc2cnc(C(=O)N3CCOCC3c3ccc(C4CC4)nc3)cc2c2c1COC2 (racemic) [Example 495, (4-amino-1,3-dihydrofuro[3,4-c][1,7]naphthyridin-8-yl)-[rac-(3S)-3-(6-cyclopropyl-3-pyridyl)morpholin-4-yl]methanone] | 502 | – | – | – |
| CC1(C)CN(C(=O)c2ccc3nc(N)c4c(c3c2)COC4)[C@@H](c2ccc(C(F)(F)F)cn2)CO1 (single isomer, unassigned) [Example 594] | 99 | – | – | – |
